Assays:
[1] = tested on: ORYSAT (Rice, Tebonnet); test: Postemergence herbicidal evaluation; type: in vivo, Oryza sativa, (L.) Tebonnet; details: postemergence
Outline: (§1)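 Seedlings grown about two weeks were sprayed at 40 psi with compound dispersed in 50/50 acetone/water plus 0.5% TWEEN 20, at about 0.0156 to 0.500 kg/ha. Plants were kept in the greenhouse and scored 4–5 weeks later on a 0–9 visual scale against untreated controls.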

[2] = tested on: TRZAWR (Wheat, Winter, cv Riband); test: Preemergence herbicidal evaluation; type: in vivo, Triticum aestivum; details: rated 4-5 weeks after treatment, rating scale 0-9
Outline: (§2)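 Visual 0-9 rating vs control (stand, vigor, malformation, size, chlorosis, overall appearance), scored 4-5 wk after spraying. Seeded soil cups were treated preemergence with compound in aqueous acetone, ~0.0156-0.500 kg/ha equivalent.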

[3] = tested on: ECHORC (Watergrass (Calif.)); test: Preemergence weed control under flooded paddy conditions; type: in vivo, Echinochloa oryzoides; details: rated 3-4 weeks after treatment
Outline: (§3)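 Herbicidal effect is scored visually on a 0-9 scale against an untreated control, three to four weeks after compounds are pipetted into the flood water (1.5 to 3 cm deep) over seeds planted in silt loam at 0.5 cm depth. Rates: about 0.0313 to 0.500 kg/ha.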

[4] = tested on: SETVI (Foxtail, Green); test: Preemergence herbicidal evaluation; type: in vivo, Setaria viridis; details: rated 4-5 weeks after treatment, rating scale 0-9
Outline: as §2

[5] = tested on: ZEAMX (Corn, Field); test: Preemergence herbicidal evaluation; type: in vivo, Zea mays; details: rated 4-5 weeks after treatment, rating scale 0-9
Outline: as §2

[6] = tested on: SETVI (Foxtail, Green); test: Postemergence herbicidal evaluation; type: in vivo, Setaria viridis; details: postemergence
Outline: as §1

[7] = tested on: CYPSE (Flatsedge); test: Preemergence weed control under flooded paddy conditions; type: in vivo, Cyperus serotinus; details: rated 3-4 weeks after treatment
Outline: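 Seeds or propagules sown in top 0.5 cm of silt loam soil, flooded 1.5 to 3 cm above surface throughout. Compound in 50/50 v/v aqueous/acetone pipetted into flood water at about 0.0313 to 0.500 kg/ha. Visual 0-9 rating versus control after three to four weeks in greenhouse.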

[8] = tested on: CYPIR (Rice Flatsedge); test: as above; type: in vivo, Cyperus iria; details: rated 3-4 weeks after treatment
Outline: as §3

[9] = tested on: ECHCG (Barnyardgrass); test: Preemergence herbicidal evaluation; type: in vivo, Echinochloa crus-galli; details: rated 4-5 weeks after treatment, rating scale 0-9
Outline: as §2

[10] = tested on: ZEAMX (Corn, Field); test: Postemergence herbicidal evaluation; type: in vivo, Zea mays; details: postemergence
Outline: as §1

Row | SMILES | herbicidal rating ORYSAT ([1]; rate 0.0156 kg/ha) | herbicidal rating ORYSAT ([1]; rate 0.0313 kg/ha) | herbicidal rating ORYSAT ([1]; rate 0.0625 kg/ha) | Preemergence herbicidal rating TRZAWR ([2]; rate 0.0313 kg/ha) | Preemergence herbicidal rating TRZAWR ([2]; rate 0.0625 kg/ha) | Preemergence herbicidal rating TRZAWR ([2]; rate 0.1250 kg/ha) | Preemergence herbicidal rating TRZAWR ([2]; rate 0.2500 kg/ha) | herbicidal effect rating, ECHORC ([3]; 0.0313 kg/ha) | herbicidal effect rating, ECHORC ([3]; 0.0625 kg/ha) | herbicidal effect rating, ECHORC ([3]; 0.1250 kg/ha) | herbicidal effect rating, ECHORC ([3]; 0.2500 kg/ha) | Preemergence herbicidal rating SETVI ([4]; rate 0.0313 kg/ha) | Preemergence herbicidal rating SETVI ([4]; rate 0.0625 kg/ha) | Preemergence herbicidal rating SETVI ([4]; rate 0.1250 kg/ha) | Preemergence herbicidal rating SETVI ([4]; rate 0.2500 kg/ha) | Preemergence herbicidal rating ZEAMX ([5]; rate 0.0313 kg/ha) | Preemergence herbicidal rating ZEAMX ([5]; rate 0.0625 kg/ha) | Preemergence herbicidal rating ZEAMX ([5]; rate 0.1250 kg/ha) | Preemergence herbicidal rating ZEAMX ([5]; rate 0.2500 kg/ha) | herbicidal rating SETVI ([6]; rate 0.0156 kg/ha) | other results
1 | Cn1c(C(F)(F)F)cc(=O)n(-c2cc(N=C3SCC(=O)N3Cc3cccc(C(F)(F)F)c3)c(Cl)cc2F)c1=O [Compound 142, 3-{4-Chloro-2-fluoro-5-{{3-[m-(trifluoromethyl)benzyl]-4-oxo-2-thiazolidinylidene}-amino}phenyl}-1-methyl-6-(trifluoromethyl)-2,4(1H,3H)-pyrimidinedione] | 2.0 | 1.5 | 2.0 | 0.0 | 0.0 | 0.0 | 0.0 | 4.0 | 5.0 | 7.0 | 7.0 | 1.0 | 0.0 | 2.0 | 7.0 | 0.0 | 0.0 | 2.0 | 2.0 | 2.0 | Preemergence herbicidal rating TRZAWR ([2]; rate 0.0156 kg/ha): 0.0; Preemergence herbicidal rating SETVI ([4]; rate 0.0156 kg/ha): 0.0; Preemergence herbicidal rating ZEAMX ([5]; rate 0.0156 kg/ha): 0.0; herbicidal rating SETVI ([6]; rate 0.0313 kg/ha): 1.0; herbicidal rating SETVI ([6]; rate 0.0625 kg/ha): 3.0; herbicidal effect rating, CYPSE ([7]; 0.1250 kg/ha): 0.0; herbicidal effect rating, CYPSE ([7]; 0.2500 kg/ha): 0.0; herbicidal effect rating, CYPIR ([8]; 0.0313 kg/ha): 0.0; herbicidal effect rating, CYPIR ([8]; 0.0625 kg/ha): 2.0; herbicidal effect rating, CYPIR ([8]; 0.1250 kg/ha): 6.0; herbicidal effect rating, CYPIR ([8]; 0.2500 kg/ha): 7.0; Preemergence herbicidal rating ECHCG ([9]; rate 0.0156 kg/ha): 0.0; Preemergence herbicidal rating ECHCG ([9]; rate 0.0313 kg/ha): 0.0; Preemergence herbicidal rating ECHCG ([9]; rate 0.0625 kg/ha): 0.0; Preemergence herbicidal rating ECHCG ([9]; rate 0.1250 kg/ha): 0.0; Preemergence herbicidal rating ECHCG ([9]; rate 0.2500 kg/ha): 0.0; herbicidal rating ZEAMX ([10]; rate 0.0156 kg/ha): 4.0; herbicidal rating ZEAMX ([10]; rate 0.0313 kg/ha): 4.0; herbicidal rating ZEAMX ([10]; rate 0.0625 kg/ha): 4.5
2 | Cn1c(C(F)(F)F)cc(=O)n(-c2cc(N=C3SCC(=O)N3Cc3ccccc3Cl)c(Cl)cc2F)c1=O [Compound 143] | 1.5 | 1.5 | 2.0 | 0.0 | 0.0 | 0.0 | 1.0 | 5.0 | 7.0 | 9.0 | 9.0 | 0.0 | 0.0 | 3.0 | 3.0 | 0.0 | 0.0 | 0.0 | 0.0 | 2.0 | herbicidal rating SETVI ([6]; rate 0.0313 kg/ha): 1.0; herbicidal rating SETVI ([6]; rate 0.0625 kg/ha): 3.0; herbicidal effect rating, CYPSE ([7]; 0.0313 kg/ha): 0.0; herbicidal effect rating, CYPSE ([7]; 0.0625 kg/ha): 0.0; herbicidal effect rating, CYPSE ([7]; 0.1250 kg/ha): 0.0; herbicidal effect rating, CYPSE ([7]; 0.2500 kg/ha): 0.0; herbicidal effect rating, CYPIR ([8]; 0.0313 kg/ha): 0.0; herbicidal effect rating, CYPIR ([8]; 0.0625 kg/ha): 3.0; herbicidal effect rating, CYPIR ([8]; 0.1250 kg/ha): 4.0; herbicidal effect rating, CYPIR ([8]; 0.2500 kg/ha): 4.0; Preemergence herbicidal rating ECHCG ([9]; rate 0.0313 kg/ha): 0.0; Preemergence herbicidal rating ECHCG ([9]; rate 0.0625 kg/ha): 0.0; Preemergence herbicidal rating ECHCG ([9]; rate 0.1250 kg/ha): 1.0; Preemergence herbicidal rating ECHCG ([9]; rate 0.2500 kg/ha): 1.0; herbicidal rating ZEAMX ([10]; rate 0.0156 kg/ha): 4.0; herbicidal rating ZEAMX ([10]; rate 0.0313 kg/ha): 4.0; herbicidal rating ZEAMX ([10]; rate 0.0625 kg/ha): 4.0
3 | Cn1c(C(F)(F)F)cc(=O)n(-c2cc(N=C3SCC(=O)N3Cc3ccc(Cl)cc3)c(Cl)cc2F)c1=O [Compound 145, 3-{4-Chloro-5-{[3-(p-chlorobenzyl)-4-oxo-2-thiazolidinylidene]amino}-2-fluorophenyl}-1-methyl-6-(trifluoromethyl)-2,4(1H,3H)-pyrimidinedione] | 2.5 | 2.5 | 3.5 | 1.0 | 1.0 | 0.0 | 1.0 | 6.0 | 6.0 | 7.0 | 7.0 | 0.0 | 7.0 | 3.0 | 7.0 | 0.0 | 0.0 | 1.0 | 2.0 | 1.0 | Preemergence herbicidal rating TRZAWR ([2]; rate 0.0156 kg/ha): 0.0; Preemergence herbicidal rating SETVI ([4]; rate 0.0156 kg/ha): 1.0; Preemergence herbicidal rating ZEAMX ([5]; rate 0.0156 kg/ha): 0.0; herbicidal rating SETVI ([6]; rate 0.0313 kg/ha): 3.0; herbicidal rating SETVI ([6]; rate 0.0625 kg/ha): 5.0; herbicidal effect rating, CYPSE ([7]; 0.1250 kg/ha): 9.0; herbicidal effect rating, CYPSE ([7]; 0.2500 kg/ha): 9.0; herbicidal effect rating, CYPIR ([8]; 0.0313 kg/ha): 4.0; herbicidal effect rating, CYPIR ([8]; 0.0625 kg/ha): 5.0; herbicidal effect rating, CYPIR ([8]; 0.1250 kg/ha): 7.0; herbicidal effect rating, CYPIR ([8]; 0.2500 kg/ha): 9.0; Preemergence herbicidal rating ECHCG ([9]; rate 0.0156 kg/ha): 0.0; Preemergence herbicidal rating ECHCG ([9]; rate 0.0313 kg/ha): 0.0; Preemergence herbicidal rating ECHCG ([9]; rate 0.0625 kg/ha): 1.0; Preemergence herbicidal rating ECHCG ([9]; rate 0.1250 kg/ha): 1.0; Preemergence herbicidal rating ECHCG ([9]; rate 0.2500 kg/ha): 1.0; herbicidal rating ZEAMX ([10]; rate 0.0156 kg/ha): 4.0; herbicidal rating ZEAMX ([10]; rate 0.0313 kg/ha): 4.0; herbicidal rating ZEAMX ([10]; rate 0.0625 kg/ha): 5.0
4 | Cc1ccc(CN2C(=O)CSC2=Nc2cc(-n3c(=O)cc(C(F)(F)F)n(C)c3=O)c(F)cc2Cl)cc1C [Compound 147, 3-{4-Chloro-5-{[3-(3,4-dimethylbenzyl)-4-oxo-2-thiazolidinylidene]amino}-2-fluorophenyl}-1-methyl-6-(trifluoromethyl)-2,4(1H,3H)-pyrimidinedione] | 1.5 | 2.5 | 3.5 | 0.0 | 0.0 | 0.0 | 0.0 | 5.0 | 7.0 | 9.0 | 9.0 | 0.0 | 0.0 | 1.0 | 4.0 | 1.0 | 0.0 | 1.0 | 2.0 | 1.0 | Preemergence herbicidal rating TRZAWR ([2]; rate 0.0156 kg/ha): 0.0; Preemergence herbicidal rating SETVI ([4]; rate 0.0156 kg/ha): 1.0; Preemergence herbicidal rating ZEAMX ([5]; rate 0.0156 kg/ha): 1.0; herbicidal rating SETVI ([6]; rate 0.0313 kg/ha): 1.0; herbicidal rating SETVI ([6]; rate 0.0625 kg/ha): 2.0; herbicidal effect rating, CYPSE ([7]; 0.2500 kg/ha): 0.0; herbicidal effect rating, CYPIR ([8]; 0.0313 kg/ha): 4.0; herbicidal effect rating, CYPIR ([8]; 0.0625 kg/ha): 4.0; herbicidal effect rating, CYPIR ([8]; 0.1250 kg/ha): 7.0; herbicidal effect rating, CYPIR ([8]; 0.2500 kg/ha): 7.0; Preemergence herbicidal rating ECHCG ([9]; rate 0.0156 kg/ha): 0.0; Preemergence herbicidal rating ECHCG ([9]; rate 0.0313 kg/ha): 0.0; Preemergence herbicidal rating ECHCG ([9]; rate 0.0625 kg/ha): 0.0; Preemergence herbicidal rating ECHCG ([9]; rate 0.1250 kg/ha): 0.0; Preemergence herbicidal rating ECHCG ([9]; rate 0.2500 kg/ha): 0.0; herbicidal rating ZEAMX ([10]; rate 0.0156 kg/ha): 4.0; herbicidal rating ZEAMX ([10]; rate 0.0313 kg/ha): 4.5; herbicidal rating ZEAMX ([10]; rate 0.0625 kg/ha): 4.5
